This passage reports EC50 results from patent publication US9174964B2, “AMPK-activating piperidinyloxy-substituted 2,3-dihydro-1H-indene-1-amine compounds and pharmaceutical compositions including the same” (Rigel Pharmaceuticals, Inc., priority 2007, dated 2015).

Counter-ions that a name gives are not always drawn. Some results are limits rather than exact numbers.

The first experiment concerns the target AMPK. The experiment can be described thus: AMPK activation, enzyme-linked immunosorbent assay. It counts as biochemical. To be noted: Table 2, AMPK activation, ELISA. The method, then: Compounds 1-50 of Table 1 were assayed for their ability to activate AMPK using an enzyme-linked immunosorbent assay.
Compounds 51-60 of Table 1 were assayed for their ability to activate AMPK using an enzyme-linked immunosorbent assay.
Compounds 61-131 of Table 1 were assayed for their ability to activate AMPK using an enzyme-linked immunosorbent assay.
Compounds 137-141 and 143-155 of Table 1 were assayed for their ability to activate AMPK using an enzyme-linked immunosorbent assay.
Compounds 156-160 of Table 1 were assayed for their ability to activate AMPK using an enzyme-linked immunosorbent assay.
Take `O=C(N[C@@H]1CCN(Cc2ccc(F)cc2)C1)c1ccc(OC2CCN(c3ccc(C(F)(F)F)cc3)CC2)cn1` [Compound 34, (R)-N-(1-(4-fluorobenzyl)pyrrolidin-3-yl)-5-(1-(4-(trifluoromethyl)phenyl)piperidin-4-yloxy)picolinamide]: the EC50 fell in the range of 500 to 1000 nM.

Take `O=C(NCCCNCc1ccncc1)c1ccc(OC2CCN(c3ccc(C(F)(F)F)cc3)CC2)cn1` [Compound 50, N-(3-(pyridin-4-ylmethylamino)propyl)-5-(1-(4-(trifluoromethyl)phenyl)piperidin-4-yloxy)picolinamide]: the 50% effective concentration (EC50) is 1000 to 5000 nM.

In turn, `N#Cc1ccc(CN2CC[C@H](NC(=O)c3ccc(OC4CCN(c5ccc(C(F)(F)F)cc5)CC4)cn3)C2)cc1` [Compound 31, (S)-N-(1-(4-cyanobenzyl)pyrrolidin-3-yl)-5-(1-(4-(trifluoromethyl)phenyl)piperidin-4-yloxy)picolinamide] showed an EC50 below 100 nM.

The compound `N#Cc1ccc(CN2CCC(NC(=O)c3cncc(OC4CCN(c5ccc(C(F)(F)F)cc5)CC4)c3)CC2)cc1` [Compound 17, N-(1-(4-cyanobenzyl)piperidin-4-yl)-5-(1-(4-(trifluoromethyl)phenyl)piperidin-4-yloxy)nicotinamide] registered an EC50 below 100 nM.

In turn, `N#Cc1ccc(CN2CCC(NC(=O)c3ccc(OC4CCN(c5ccc(C#N)cc5)CC4)cn3)CC2)cc1` [Compound 2, N-(1-(4-cyanobenzyl)piperidin-4-yl)-5-(1-(4-cyanophenyl)piperidin-4-yloxy)picolinamide] yielded an EC50 below 100 nM.

`COC(=O)c1ccc(CN2CCC(NC(=O)c3ccc(OC4CCN(c5ccc(C#N)cc5)CC4)cn3)CC2)cc1` [Compound 7, methyl 4-((4-(5-(1-(4-cyanophenyl)piperidin-4-yloxy)picolinamido)piperidin-1-yl)methyl)benzoate] registered a 50% effective concentration (EC50) below 100 nM.

Consider `O=C(NC1CCN(Cc2ccccc2)CC1)c1ccc(OC2CCN(c3ccc(C(F)(F)F)cc3)CC2)cn1` [Compound 38, N-(1-benzylpiperidin-4-yl)-5-(1-(4-(trifluoromethyl)phenyl)piperidin-4-yloxy)picolinamide], for which the EC50 is 1000 to 5000 nM.

As to `O=C(NC1CCN(Cc2ccc(F)cc2)CC1)c1ccnc(OC2CCN(c3ccc(C(F)(F)F)cc3)CC2)c1` [Compound 22, N-(1-(4-fluorobenzyl)piperidin-4-yl)-2-(1-(4-(trifluoromethyl)phenyl)piperidin-4-yloxy)isonicotinamide], the EC50 was in the range of 1000 to 5000 nM.

The experiment is the same for the next values; noted with them: Table 3, AMPK activation, ELISA.
In the case of `N#Cc1cccc(CN2CCC(NS(=O)(=O)c3ccc(OC4CCN(c5ccc(C(F)(F)F)cc5)CC4)nc3)CC2)c1` [Compound 57, N-(1-(3-cyanobenzyl)piperidin-4-yl)-6-(1-(4-(trifluoromethyl)phenyl)piperidin-4-yloxy)pyridine-3-sulfonamide], the EC50 fell in the range of 500 to 1000 nM.

As for `O=S(=O)(NC1CCN(Cc2ccncc2)CC1)c1ccc(OC2CCN(c3ccc(C(F)(F)F)cc3)CC2)nc1` [Compound 51, N-(1-(pyridin-4-ylmethyl)piperidin-4-yl)-6-(1-(4-(trifluoromethyl)phenyl)piperidin-4-yloxy)pyridine-3-sulfonamide], the EC50 lay within 100 to 500 nM.

Consider `O=S(=O)(NC1CCNCC1)c1ccc(OC2CCN(c3ccc(C(F)(F)F)cc3)CC2)nc1` [Compound 55, N-(piperidin-4-yl)-6-(1-(4-(trifluoromethyl)phenyl)piperidin-4-yloxy)pyridine-3-sulfonamide], for which the EC50 was in the range of 1000 to 5000 nM.

Staying with this experiment, now noted: Table 4, AMPK activation, ELISA.
Regarding `CN(C(=O)c1cc2cc(OC3CCN(c4ccc(C(F)(F)F)cc4)CC3)ccc2o1)C1CCN(Cc2cccnc2)CC1` [Compound 109, N-methyl-N-(1-(pyridin-3-ylmethyl)piperidin-4-yl)-5-(1-(4-(trifluoromethyl)phenyl)piperidin-4-yloxy)benzofuran-2-carboxamide], the EC50 is below 100 nM.

The compound `O=C(NC1CCN(Cc2ccncc2)CC1)c1cc2cc(OC3CCN(c4ccc(OC(F)(F)F)cc4)CC3)ccc2o1` [Compound 78, N-(1-(pyridin-4-ylmethyl)piperidin-4-yl)-5-(1-(4-(trifluoromethoxy)phenyl)piperidin-4-yloxy)benzofuran-2-carboxamide trifluoroacetate salt] came in with an EC50 below 100 nM.

In turn, `O=C(NC1CCNCC1)c1cc2cc(OC3CCN(c4ccc(C(F)(F)F)cc4)CC3)ccc2o1` [Compound 86, N-(piperidin-4-yl)-5-(1-(4-(trifluoromethyl)phenyl)piperidin-4-yloxy)benzofuran-2-carboxamide hydrochloride] came in with an EC50 above 50000 nM.

On to `O=C(NC1CCN(C(=O)c2ccncc2)CC1)c1cc2cc(OC3CCN(c4ccc(C(F)(F)F)cc4)CC3)ccc2o1` [Compound 115, N-(1-isonicotinoylpiperidin-4-yl)-5-(1-(4-(trifluoromethyl)phenyl)piperidin-4-yloxy)benzofuran-2-carboxamide], for which the half-maximal effective concentration (EC50) is below 100 nM.

Compound `O=C(NC1CCN(Cc2ccncc2)CC1)c1cc2ccc(OC3CCN(c4ccc(C(F)(F)F)cc4)CC3)cc2o1` [Compound 87, N-(1-(pyridin-4-ylmethyl)piperidin-4-yl)-6-(1-(4-(trifluoromethyl)phenyl)piperidin-4-yloxy)benzofuran-2-carboxamide] gave an EC50 below 100 nM.

Compound `N#Cc1ccccc1CN1CCC(NC(=O)c2cc3ccc(OC4CCN(c5ccc(C(F)(F)F)cc5)CC4)cc3o2)CC1` [Compound 98, N-(1-(2-cyanobenzyl)piperidin-4-yl)-6-(1-(4-(trifluoromethyl)phenyl)piperidin-4-yloxy)benzofuran-2-carboxamide] had an EC50 below 100 nM.

For the compound `N#Cc1ccc(N2CCC(Oc3ccc4oc(C(=O)NC5CCN(Cc6ccccc6)CC5)cc4c3)CC2)cc1` [Compound 71, N-(1-benzylpiperidin-4-yl)-5-(1-(4-cyanophenyl)piperidin-4-yloxy)benzofuran-2-carboxamide formate salt], the EC50 is below 100 nM.

On to `CN(C(=O)c1cc2cc(OC3CCN(c4ccc(C(F)(F)F)cc4)CC3)ccc2o1)C1CCN(Cc2ccccn2)CC1` [Compound 117, N-methyl-N-(1-(pyridin-2-ylmethyl)piperidin-4-yl)-5-(1-(4-(trifluoromethyl)phenyl)piperidin-4-yloxy)benzofuran-2-carboxamide], for which the EC50 was below 100 nM.

For `O=C(NC1CCN(Cc2ccc(F)cc2)CC1)c1cc2ccc(OC3CCN(c4ccc(OC(F)(F)F)cc4)CC3)cc2o1` [Compound 94, N-(1-(4-fluorobenzyl)piperidin-4-yl)-6-(1-(4-(trifluoromethoxy)phenyl)piperidin-4-yloxy)benzofuran-2-carboxamide], the half-maximal effective concentration (EC50) was below 100 nM.

The compound `O=C(NC1CCN(Cc2ccncc2)CC1)c1cc2cc(OC3CCN(Cc4ccc(Cl)cc4)CC3)ccc2o1` [Compound 77, 5-(1-(4-chlorobenzyl)piperidin-4-yloxy)-N-(1-(pyridin-4-ylmethyl)piperidin-4-yl)benzofuran-2-carboxamide] registered an EC50 of 100 to 500 nM.

On to `O=C(NC1CCNCC1)c1cc2ccc(OC3CCN(c4ccc(OC(F)(F)F)cc4)CC3)cc2o1` [Compound 83, N-(piperidin-4-yl)-6-(1-(4-(trifluoromethoxy)phenyl)piperidin-4-yloxy)benzofuran-2-carboxamide hydrochloride], for which the EC50 is 100 to 500 nM.

Still in this experiment, the particulars now being: Table 5, AMPK activation, ELISA.
The compound `O=C(NC1CCN(Cc2cccnc2)CC1)c1sc2cc(OC3CCN(c4ccc(C(F)(F)F)cc4)CC3)ccc2c1Cl` [Compound 152, 3-chloro-N-(1-(pyridin-3-ylmethyl)piperidin-4-yl)-6-(1-(4-(trifluoromethyl)phenyl)piperidin-4-yloxy)benzo[b]thiophene-2-carboxamide] showed an EC50 below 100 nM.

Regarding `O=C(NC1CCN(Cc2ccccn2)CC1)c1sc2cc(OC3CCN(c4ccc(C(F)(F)F)cc4)CC3)ccc2c1Cl` [Compound 153, 3-chloro-N-(1-(pyridin-2-ylmethyl)piperidin-4-yl)-6-(1-(4-(trifluoromethyl)phenyl)piperidin-4-yloxy)benzo[b]thiophene-2-carboxamide], the EC50 lay in the range of 100 to 500 nM.

Regarding `O=C(NC1CCN(C(=O)c2ccncc2)CC1)c1sc2cc(OC3CCN(c4ccc(C(F)(F)F)cc4)CC3)ccc2c1Cl` [Compound 155, 3-chloro-N-(1-isonicotinoylpiperidin-4-yl)-6-(1-(4-(trifluoromethyl)phenyl)piperidin-4-yloxy)benzo[b]thiophene-2-carboxamide], the EC50 is below 100 nM.

The compound `N#Cc1ccc(CN2CCC(NC(=O)c3sc4cc(OC5CCN(c6ccc(C(F)(F)F)cc6)CC5)ccc4c3Cl)CC2)cc1` [Compound 154, 3-chloro-N-(1-(4-cyanobenzyl)piperidin-4-yl)-6-(1-(4-(trifluoromethyl)phenyl)piperidin-4-yloxy)benzo[b]thiophene-2-carboxamide] registered a concentration giving a half-maximal response (EC50) below 100 nM.

With `O=C(NC1CCN(Cc2ccncc2)CC1)c1cc2cc(OC3CCN(Cc4ccc(Cl)cc4)CC3)ccc2s1` [Compound 139, formate salt], the EC50 was below 100 nM.

Compound `O=C(NC1CCNCC1)c1cc2cc(OC3CCN(c4ccc(C(F)(F)F)cc4)CC3)ccc2s1` [Compound 150, N-(piperidin-4-yl)-5-(1-(4-(trifluoromethyl)phenyl)piperidin-4-yloxy)benzo[b]thiophene-2-carboxamide] registered an EC50 of 1000 to 50000 nM.

Take `O=C(NC1CCN(Cc2ccncc2)CC1)c1cc2cc(OC3CCN(c4ccc(OC(F)(F)F)cc4)CC3)ccc2s1` [Compound 137, N-(1-(pyridin-4-ylmethyl)piperidin-4-yl)-5-(1-(4-(trifluoromethoxy)phenyl)piperidin-4-yloxy)benzo[b]thiophene-2-carboxamide]: the EC50 was below 100 nM.

The compound `N#Cc1cccc(CN2CCC(NC(=O)c3cc4ccc(OC5CCN(c6ccc(C(F)(F)F)cc6)CC5)cc4s3)CC2)c1` [Compound 145, N-(1-(3-cyanobenzyl)piperidin-4-yl)-6-(1-(4-(trifluoromethyl)phenyl)piperidin-4-yloxy)benzo[b]thiophene-2-carboxamide] came in with an EC50 of 100 to 500 nM.

By EC50 is commonly meant the midpoint of the concentration-response curve. A high value points to lower potency in that assay.
